Consider 17 molecules from patent US7420056B2, “Substituted bicyclic imidazo-3-ylamine compounds” (Gruenenthal GmbH, priority 2004, dated 2008).

Counter-ions that a name gives are not always drawn. Like-named read-outs stand apart in the source and are kept apart here.

One assay has as its target mGluR5 receptor (Sus scrofa, UniProt I3LUI7). The assay can be described thus: Affinity for the mGluR5 receptor: inhibition of 3[H]-MPEP binding in pig brain homogenate. The note with it: for IC50: 3[H]-MPEP binding; for inhibition at 10 µM: 10 μM compound, 5 nM 3[H]-MPEP, read-out: mGluR5 receptor inhibition of ^3[H]-MPEP binding [10 μM] in % at a concentration of the example compounds of 10 μM. The essentials: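 Test compounds were screened at 10 μM for displacement of 5 nM [3H]-MPEP from pig brain homogenate (450 μg protein, pH 8.0 Hepes buffer) over 60 min at room temperature. After filtration, scintillation counting gave the read-out. 10 μM unlabelled MPEP set nonspecific binding.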

Another assay concerns Rat. The assay can be described thus: Formaldehyde test (rat), phase 2. In kind it is in vivo.
Another assay concerns Mouse. The assay can be described thus: Formaldehyde test in mice. In kind it is in vivo.
The test system of assay [1] is neuropathic pain in rats (cold allodynia). The assay can be described thus: Neuropathic pain in rats, Bennett model (chronic constriction injury), cold allodynia. In kind it is in vivo. The conditions noted are these: rat, p.o., in words. An excerpt:
2. Neuropathic Pain in Rats Efficacy against neuropathic pain was investigated in the Bennett model (chronic constriction injury; Bennett and Xie, 1988, Pain 33: 87-107). The corresponding parts of the literature are hereby deemed to be part of the present disclosure. Sprague-Dawley rats weighing 140-160 g are provided under Nembutal anaesthesia with four loose ligatures of the right ischial nerve. On the paw innervated by the damaged nerve, the animals develop hypersensitivity which, after one week's convalescence, is quantified over a period of approx. four weeks by means of a cold metal plate at 4° C. (cold allodynia). The animals are observed on this plate for a period of 2 min. and the number of withdrawal responses by the damaged paw is measured. […] The significance of an antiallodynic action is determined with reference to the AUC values by means of a paired T-test (*0.05≧p>0.01; **0.01≧p>0.001; ***p≦0.001; Armitage and Berry, 1987, Stat. Methods in Medical Research, London: Blackwell Scientific Publications).

The test system of the next assay is male Sprague-Dawley rats. The assay can be described thus: Elevated plus maze (EPM) model, anxiolytic effect. The note with it: rat, 60 min after p.o. administration, in words. The class given is in vivo. The procedure:
3. “Elevated Plus Maze” Model
Compounds are tested for a possible anxiolytic effect in the “elevated plus maze” (EPM) model. The tests are carried out on male Sprague-Dawley rats (200-250 g) using 2 “elevated plus mazes” (Med Associates) with electronically controlled infrared photobeams for determining the location of the animals in the maze. Each maze has 2 open and 2 closed arms and a central platform. The edges of the open arms are delimited by narrow strips. The entire maze is mounted on a metal stand.
At the beginning of a 5 minute test, each animal is individually placed on the central platform with its head in the direction of a closed arm.
The following parameters are determined or calculated and evaluated:
the number and percentage of entries into the open and closed arms,
and the percentage of time spent in the open and closed arms and on the central platform.
The data are analysed by means of single factor ANOVA (comparison of treatment groups vs. vehicle group). The significance level is set at p<0.05. All groups have a size of N=10.
The test is also described in Hogg, S. (1996) A review of the validity and variability of the elevated plus-maze as an animal model of anxiety. Pharmacol. Biochem. Behav. 54, 21-30 and Rodgers, R. J., Cole, J. C. (1994) The elevated plus-maze: pharmacology, methodology and ethology, in: Cooper, S. J., Hendrie, C. […]

Setting [2] is: ip, read-out: ED50 value, Rat i.p.
Setting [3] is: po, read-out: ED50 value, Rat p.o.
The mark [4] stands for this setting: ip, read-out: ED50 value, Mouse i.p.

Chain of mGluR5 receptor (I3LUI7 19-1212): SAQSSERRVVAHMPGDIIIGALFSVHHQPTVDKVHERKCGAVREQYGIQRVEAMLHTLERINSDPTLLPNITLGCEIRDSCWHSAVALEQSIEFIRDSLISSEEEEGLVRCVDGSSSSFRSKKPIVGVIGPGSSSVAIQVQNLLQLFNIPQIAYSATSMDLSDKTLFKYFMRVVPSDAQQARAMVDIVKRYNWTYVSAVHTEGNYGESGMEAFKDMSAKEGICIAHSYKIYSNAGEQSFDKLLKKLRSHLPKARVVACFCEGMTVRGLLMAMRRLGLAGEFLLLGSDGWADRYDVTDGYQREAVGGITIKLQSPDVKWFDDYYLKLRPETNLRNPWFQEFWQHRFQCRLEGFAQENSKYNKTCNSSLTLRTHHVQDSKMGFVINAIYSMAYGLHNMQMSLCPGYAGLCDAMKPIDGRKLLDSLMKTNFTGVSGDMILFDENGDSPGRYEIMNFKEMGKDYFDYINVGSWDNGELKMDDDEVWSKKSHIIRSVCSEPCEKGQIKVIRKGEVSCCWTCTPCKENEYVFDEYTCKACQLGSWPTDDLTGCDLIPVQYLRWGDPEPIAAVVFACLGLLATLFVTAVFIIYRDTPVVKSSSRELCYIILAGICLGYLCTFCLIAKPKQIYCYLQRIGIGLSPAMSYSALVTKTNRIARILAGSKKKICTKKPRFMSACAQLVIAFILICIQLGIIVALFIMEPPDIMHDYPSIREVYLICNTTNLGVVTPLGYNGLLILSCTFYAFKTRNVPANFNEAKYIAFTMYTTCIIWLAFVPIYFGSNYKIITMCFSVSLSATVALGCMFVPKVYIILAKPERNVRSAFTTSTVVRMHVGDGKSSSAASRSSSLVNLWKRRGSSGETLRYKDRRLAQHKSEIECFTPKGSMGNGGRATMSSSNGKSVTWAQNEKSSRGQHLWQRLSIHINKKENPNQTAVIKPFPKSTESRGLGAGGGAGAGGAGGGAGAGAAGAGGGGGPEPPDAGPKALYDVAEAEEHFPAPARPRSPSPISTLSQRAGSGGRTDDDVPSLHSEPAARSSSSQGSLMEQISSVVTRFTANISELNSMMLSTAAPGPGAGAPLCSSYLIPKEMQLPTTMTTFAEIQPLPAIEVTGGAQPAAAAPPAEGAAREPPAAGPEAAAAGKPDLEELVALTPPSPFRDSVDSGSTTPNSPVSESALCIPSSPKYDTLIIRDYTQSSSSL

In general, IC50 refers to the concentration needed to halve the response being measured. A high value points to lower potency. What is called ED50 is the dose that gives a 50% effect, or the effect in half of the subjects. As to `CC(C)(C)Nc1c(-c2ccc(C#Cc3ccccn3)s2)nc2cnccn12.Cl` [Example 91, N-tert-butyl-2-(5-(pyridin-2-ylethynyl)thiophen-2-yl)imidazo[1,2-a]pyrazin-3-amine hydrochloride], the IC50 on mGluR5 receptor came to 5.4 nM. The 50% effective dose (ED50) in the assay with Rat (setting [2]) stood at 4.7 mg/kg; in the assay on Rat (setting [3]), 7.3 mg/kg; in the assay on Mouse (setting [4]) it was 1.2 mg/kg; with Mouse (po, read-out: ED50 value, Mouse p.o.), 2.3 mg/kg.

Turning to `CC(C)(C)Nc1c(-c2ccc(C#Cc3cccs3)s2)nc2cnccn12.Cl` [Example 110, N-tert-butyl-2-(5-(thiophen-2-ylethynyl)thiophen-2-yl)imidazo[1,2-a]pyrazin-3-amine hydrochloride], the IC50 on mGluR5 receptor turned out to be 49 nM. For the same molecule, the “% inhibition, Rat p.o.” value in the assay on Rat (p.o., at 21.5 mg/kg) stood at 61% at 21.5.

`CC(C)(C)Nc1c(-c2ccc(C#Cc3ccccn3)cc2)nc2cnccn12` [Example 116, N-tert-butyl-2-(4-(pyridin-2-ylethynyl)phenyl)imidazo[1,2-a]pyrazin-3-amine] gave an IC50 at mGluR5 receptor of 76 nM. For the same molecule, the ED50 in the assay with Mouse (setting [4]) was 15.2 mg/kg.

With `CC(C)(C)Nc1c(-c2ccc(C#Cc3ccncc3)s2)nc2cnccn12.Cl` [Example 127, N-tert-butyl-2-(5-(pyridin-4-ylethynyl)thiophen-2-yl)imidazo[1,2-a]pyrazin-3-amine hydrochloride], on mGluR5 receptor, the IC50 worked out at 8.4 nM. For the same molecule, the values for the ED50 in the assay on Rat (setting [2]), with Rat (setting [3]) and with Mouse (setting [4]) were 2.2 mg/kg, 5.9 mg/kg and 7.7 mg/kg, respectively.

As to `CC(C)(C)Nc1c(-c2ccc(C#Cc3ccccn3)s2)nc2ccccn12.Cl` [Example 192, N-tert-butyl-2-(5-(pyridin-2-ylethynyl)thiophen-2-yl)imidazo[1,2-a]pyridin-3-amine hydrochloride], the antiallodynic action result in assay [1] was “pronounced, long-lasting antiallodynic action”. Moreover, in the assay with male Sprague-Dawley rats, the anxiolytic effect entry is listed as “dose-dependent anxiolytic effect”.

`Cc1ccc(C#Cc2ccc(-c3nc4ccccn4c3NC(C)(C)C)s2)nc1` [Example 339, tert-butyl-{2-[5-(5-methyl-pyridin-2-ylethynyl)-thiophen-2-yl]-imidazo[1,2-a]pyridin-3-yl}-amine hydrochloride] yielded an IC50 at mGluR5 receptor of 320 nM.

Consider `CC(=O)c1cccc(C#Cc2ccc(-c3nc4ccccn4c3NC(C)(C)C)s2)c1` [Example 340, 1-{3-[5-(3-tert-butylamino-imidazo[1,2-a]pyridin-2-yl)-thiophen-2-ylethynyl]-phenyl}-ethanone hydrochloride], for which the half-inhibitory concentration (IC50) on mGluR5 receptor turned out to be 620 nM.

The molecule `CC(C)(C)Nc1c(-c2ccc(C#Cc3cccc(CO)c3)s2)nc2ccccn12` [Example 341, {3-[5-(3-tert-butylamino-imidazo[1,2-a]pyridin-2-yl)-thiophen-2-ylethynyl]-phenyl}-methanol hydrochloride] gave an IC50 on mGluR5 receptor of 240 nM.

The molecule `COc1cccnc1C#Cc1ccc(-c2nc3ccccn3c2NC(C)(C)C)s1` [Example 342, N-tert-butyl-2-(5-((3-methoxypyridin-2-yl)ethynyl)thiophen-2-yl)imidazo[1,2-a]pyridin-3-amine] displayed an IC50 on mGluR5 receptor of 1360 nM.

Molecule `CC(C)(C)Nc1c(-c2ccc(C#Cc3cccs3)s2)nc2ccccn12` [Example 343, N-tert-butyl-2-(5-(thiophen-2-ylethynyl)thiophen-2-yl)imidazo[1,2-a]pyridin-3-amine hydrochloride] gave an IC50 at mGluR5 receptor of 93 nM.

Molecule `CC(C)(C)Nc1c(-c2ccc(C#Cc3ccc(F)c(C#N)c3)s2)nc2ccccn12` [Example 344, 5-((5-(3-(tert-butylamino)imidazo[1,2-a]pyridin-2-yl)thiophen-2-yl)ethynyl)-2-fluorobenzonitrile hydrochloride] gave an IC50 at mGluR5 receptor of 170 nM.

`COCc1cccc(C#Cc2ccc(-c3nc4ccccn4c3NC(C)(C)C)s2)c1` [Example 346, N-tert-butyl-2-(5-((3-(methoxymethyl)phenyl)ethynyl)thiophen-2-yl)imidazo[1,2-a]pyridin-3-amine] gave an IC50 at mGluR5 receptor of 670 nM.

`CC(C)(C)Nc1c(-c2ccc(C#Cc3cccc(N)c3)s2)nc2ccccn12` [Example 347, 2-(5-((3-aminophenyl)ethynyl)thiophen-2-yl)-N-tert-butylimidazo[1,2-a]pyridin-3-amine hydrochloride] registered an IC50 on mGluR5 receptor of 920 nM.

For `Cc1cc(C#Cc2ccc(-c3nc4ccccn4c3NC(C)(C)C)s2)ccc1F` [Example 348, N-tert-butyl-2-(5-((4-fluoro-3-methylphenyl)ethynyl)thiophen-2-yl)imidazo[1,2-a]pyridin-3-amine hydrochloride], the inhibition at 10 µM on mGluR5 receptor came out at 44%.

Consider `CC(C)(C)Nc1c(-c2ccc(C#Cc3cc(F)cc(F)c3)s2)nc2ccccn12` [Example 349, N-tert-butyl-2-(5-((3,5-difluorophenyl)ethynyl)thiophen-2-yl)imidazo[1,2-a]pyridin-3-amine], for which the inhibition at 10 µM on mGluR5 receptor came out at 39%.

On to `CC(C)(C)Nc1c(-c2ccc(C#Cc3ccsc3)s2)nc2ccccn12` [Example 350, N-tert-butyl-2-(5-(thiophen-3-ylethynyl)thiophen-2-yl)imidazo[1,2-a]pyridin-3-amine hydrochloride], for which the IC50 on mGluR5 receptor came out at 570 nM.

At mGluR5 receptor, `Cc1cccnc1C#Cc1ccc(-c2nc3ccccn3c2NC(C)(C)C)s1` [Example 351, N-tert-butyl-2-(5-((3-methylpyridin-2-yl)ethynyl)thiophen-2-yl)imidazo[1,2-a]pyridin-3-amine hydrochloride] registered an IC50 of 230 nM.
